# Experimental data published in patent US10414763B2 (CANCER RESEARCH TECHNOLOGY LIMITED, priority 2014, dated 2019).
# Molecular target: T1, full-length human PKCι (Homo sapiens, UniProt P41743)
# T1 construct: Recombinant, full-length human PKCι expressed in Sf21 insect cells is also commercially available; purchased EMD Millipore; host or cells: Sf21 insect cells (baculovirus)
# T1 sequence (P41743 1-596): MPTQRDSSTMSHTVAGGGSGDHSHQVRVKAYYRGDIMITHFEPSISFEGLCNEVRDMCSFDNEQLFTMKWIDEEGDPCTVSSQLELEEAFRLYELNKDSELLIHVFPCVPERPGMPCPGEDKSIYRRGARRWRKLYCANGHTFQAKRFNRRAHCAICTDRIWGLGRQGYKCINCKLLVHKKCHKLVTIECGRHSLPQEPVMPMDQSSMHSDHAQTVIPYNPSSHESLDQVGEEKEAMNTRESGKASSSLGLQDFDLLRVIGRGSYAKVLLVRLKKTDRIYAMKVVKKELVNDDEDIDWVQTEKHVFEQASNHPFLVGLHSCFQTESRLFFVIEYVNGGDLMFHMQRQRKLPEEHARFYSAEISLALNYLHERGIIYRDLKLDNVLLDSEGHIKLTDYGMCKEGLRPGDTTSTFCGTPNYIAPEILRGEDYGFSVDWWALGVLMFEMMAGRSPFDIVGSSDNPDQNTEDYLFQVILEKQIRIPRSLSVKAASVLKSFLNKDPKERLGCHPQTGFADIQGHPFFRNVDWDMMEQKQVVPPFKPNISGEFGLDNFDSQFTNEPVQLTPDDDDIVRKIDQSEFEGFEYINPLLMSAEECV
# Assay: PKCι IC50 IMAP fluorescence polarisation assay, full-length enzyme, 150 μM ATP
# Format: biochemical
# Conditions: read-out: IC50 in IMAP assay against full length PKCi at 150 μM ATP
# Summary of the method: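 IMAP fluorescence polarisation kinase assay: 15 pM baculovirus-expressed human PKCiota with 100 nM FAM-pseudosubstrate peptide and 150 μM ATP, 1 h at 25 °C. IMAP detection reagent then 2 h at 25 °C before FP measurement. Inhibition referenced to no-compound and no-enzyme controls for IC50 fitting.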
row,Structure (SMILES),IC50 [nM]
1,"c1ccc2c(c1)[nH]c1nccc(-c3nc(N[C@H]4[C@@H]5CNC[C@@H]54)c4c(C5CCC5)cncc4n3)c12 [Example 33, (2R,6S)-3-Aza-bicyclo[3.1.0]hex-6-yl-[(S)-5-cyclobutyl-2-(9H-pyrido[2,3-b]indol-4-yl)-pyrido[3,4-d]pyrimidin-4-yl]-amine]",< 100
2,"C[C@@H]1CNCC[C@@H]1Nc1nc(-c2ccnc(Nc3nc(F)cc(F)c3F)c2)nc2cncc(C3CC3)c12 (racemic) [Example 301, {5-Cyclopropyl-2-[2-(3,4,6-trifluoro-pyridin-2-ylamino)-pyridin-4-yl]-pyrido[3,4-d]pyrimidin-4-yl}-(rac-(3R,4S)-3-methyl-piperidin-4-yl)-amine]",< 100
3,"CC1CC(Nc2nc(-c3ccnc(Nc4ncccc4F)c3)nc3cncc(C4CC4)c23)CC(C)N1 (stereo not drawn) [Example 260, {5-Cyclopropyl-2-[2-(3-fluoro-pyridin-2-ylamino)-pyridin-4-yl]-pyrido[3,4-d]pyrimidin-4-yl}-(2,6-dimethyl-piperidin-4-yl)-amine]",100 to 1000
4,"c1ccc(-n2cnc(Nc3cc(-c4nc(N5CCNCC5)c5c(C6CCC6)cncc5n4)ccn3)n2)cc1 [Example 330, 4-(5-Cyclobutyl-4-piperazin-1-yl-pyrido[3,4-d]pyrimidin-2-yl)-N-(1-phenyl-1,2,4-triazol-3-yl)pyridin-2-amine]",< 100
5,"Cc1nc(Nc2cc(-c3nc(N[C@H]4CCNC[C@H]4C)c4c(C5CCC5)cncc4n3)ccn2)ccc1C#N (racemic) [Example 311, 6-{4-[5-Cyclobutyl-4-(rac-(3R,4S)-3-methyl-piperidin-4-ylamino)-pyrido[3,4-d]pyrimidin-2-yl]-pyridin-2-ylamino}-2-methyl-nicotinonitrile]",< 100
6,"Clc1ccc(-c2cc3c(-c4nc(N5CCC6NCCC65)c5c(C6CC6)cncc5n4)ccnc3[nH]2)cc1 (stereo not drawn) [Example 140, 2-[2-(4-Chloro-phenyl)-1H-pyrrolo[2,3-b]pyridin-4-yl]-5-cyclopropyl-4-(hexahydro-pyrrolo[3,2-b]pyrrol-1-yl)-pyrido[3,4-d]pyrimidine]",< 100
7,"Cc1cc2c(-c3nc(N4CC[C@H]5NCCC[C@H]54)c4c(C5CC5)cncc4n3)ccnc2[nH]1 (racemic) [Example 83, (±)-5-Cyclopropyl-2-(2-methyl-1H-pyrrolo[2,3-b]pyridin-4-yl)-4-(3,7-cis)-octahydro-pyrrolo [3,2-b]pyridin-1-yl-pyrido[3,4-d]pyrimidine]",< 100
8,"O[C@@H]1CNCC[C@H]1Nc1nc(-c2ccnc(Nc3ncc(F)cc3F)c2)nc2cncc(C3CCC3)c12 (racemic) [Example 287, rac-(3R,4R)-4-{5-Cyclobutyl-2-[2-(3,5-difluoro-pyridin-2-ylamino)-pyridin-4-yl]-pyrido[3,4-d]pyrimidin-4-ylamino}-piperidin-3-ol]",< 100
9,"C[C@@H]1CNCC[C@H]1Nc1nc(-c2ccnc(Nc3ncc(F)cc3F)c2)nc2cncc(C3CCC3)c12 (racemic) [Example 290, {5-Cyclobutyl-2-[2-(3,5-difluoro-pyridin-2-ylamino)-pyridin-4-yl]-pyrido[3,4-d]pyrimidin-4-yl}-(rac-(3R,4R)-3-methyl-piperidin-4-yl)-amine]",< 100
10,"c1ccc(-n2cnc(Nc3cc(-c4nc(N5CCC6NCCCC65)c5c(C6CC6)cncc5n4)ccn3)n2)cc1 (stereo not drawn) [Example 245, {4-[5-Cyclopropyl-4-(octahydro-pyrrolo[3,2-b]pyridin-1-yl)-pyrido[3,4-d]pyrimidin-2-yl]-pyridin-2-yl}-(1-phenyl-1H-1,2,4-triazol-3-yl)-amine]",< 100
11,"CN(c1nc(-c2ccnc3[nH]c(Sc4ccccc4)cc23)nc2cncc(C3CC3)c12)C1CCNCC1(C)C (stereo not drawn) [Example 29, [5-Cyclopropyl-2-(2-phenylsulfanyl-1H-pyrrolo[2,3-b]pyridin-4-yl)-pyrido[3,4-d]pyrimidin-4-yl]-(3,3-dimethyl-piperidin-4-yl)-methyl-amine]",< 100
12,"CN(c1nc(-c2ccnc3[nH]c(Sc4ccccc4)cc23)nc2cncc(C3CCC3)c12)C1CCNCC1 [Example 28, [5-Cyclobutyl-2-(2-phenylsulfanyl-1H-pyrrolo[2,3-b]pyridin-4-yl)-pyrido[3,4-d]pyrimidin-4-yl]-methyl-piperidin-4-yl-amine]",< 100

# Continued, values first:
row,IC50 [nM],Structure (SMILES)
1,< 100,"CC1(C)CNCCC1Nc1nc(-c2ccnc(Nc3ncc(Cl)cc3F)c2)nc2cncc(C3CCC3)c12 (stereo not drawn) [Example 88, {2-[2-(5-Chloro-3-fluoro-pyridin-2-ylamino)-pyridin-4-yl]-5-cyclobutyl-pyrido[3,4-d]pyrimidin-4-yl}-(3,3-dimethyl-piperidin-4-yl)-amine]"
2,< 100,"CC1(C)CNCCC1Nc1nc(-c2ccnc(Nc3ccc4ccccc4n3)c2)nc2cncc(C3CCC3)c12 (stereo not drawn) [Example 86, {5-Cyclobutyl-2-[2-(quinolin-2-ylamino)-pyridin-4-yl]-pyrido[3,4-d]pyrimidin-4-yl}-(3,3-dimethyl-piperidin-4-yl)-amine]"
3,< 100,"CC1(C)CNCCC1Nc1nc(-c2ccnc(Nc3cc(C#N)ccn3)c2)nc2cncc(C3CCC3)c12 (stereo not drawn) [Example 107, 2-{4-[5-Cyclobutyl-4-(3,3-dimethyl-piperidin-4-ylamino)-pyrido[3,4-d]pyrimidin-2-yl]-pyridin-2-ylamino}-isonicotinonitrile]"
4,< 100,"CC1(C)CNCC[C@@H]1Nc1nc(-c2ccnc(Nc3nc4ccccc4o3)c2)nc2cncc(C3CC3)c12 [Example 327, N-[4-[5-Cyclopropyl-4-[[(4S)-3,3-dimethyl-4-piperidyl]amino]pyrido[3,4-d]pyrimidin-2-yl]-2-pyridyl]-1,3-benzoxazol-2-amine]"
5,< 100,"CC1(C)CNCC[C@@H]1Nc1nc(-c2ccnc(Nc3ncc(Cl)cc3Cl)c2)nc2cncc(C3CCC3)c12 [Example 337, 5-Cyclobutyl-2-[2-[(3,5-dichloro-2-pyridyl)amino]-4-pyridyl]-N-[(4S)-3,3-dimethyl-4-piperidyl]pyrido[3,4-d]pyrimidin-4-amine]"
6,< 100,"Cc1nc(Nc2cc(-c3nc(N[C@@H]4CCNC[C@@H]4O)c4c(C5CCC5)cncc4n3)ccn2)ccc1C#N (racemic) [Example 313, 6-{4-[5-Cyclobutyl-4-(rac-(3S,4R)-3-hydroxy-piperidin-4-ylamino)-pyrido[3,4-d]pyrimidin-2-yl]-pyridin-2-ylamino}-2-methyl-nicotinonitrile]"
7,100 to 1000,"CC1(C)CNCCC1Nc1nc(-c2ccnc(Nc3ccc(OC(F)(F)F)cc3)c2)nc2cncc(C3CCC3)c12 (stereo not drawn) [Example 90, {5-Cyclobutyl-2-[2-(4-trifluoromethoxy-phenylamino)-pyridin-4-yl]-pyrido[3,4-d]pyrimidin-4-yl}-(3,3-dimethyl-piperidin-4-yl)-amine]"
8,< 100,"CC1(C)CNCC[C@@H]1Nc1nc(-c2ccnc(Nc3ncc(Cl)cc3F)c2)nc2cncc(C3CC3)c12 [Example 319, {2-[2-(5-Chloro-3-fluoro-pyridin-2-ylamino)-pyridin-4-yl]-5-cyclopropyl-pyrido[3,4-d]pyrimidin-4-yl}-((S)-3,3-dimethyl-piperidin-4-yl)-amine]"
9,< 100,"CC1(C)CNCC[C@@H]1Nc1nc(-c2ccnc(Nc3ncn(-c4ccccc4)n3)c2)nc2cncc(C3CCC3)c12 [Example 329, 5-Cyclobutyl-N-[(4S)-3,3-dimethyl-4-piperidyl]-2-[2-[(1-phenyl-1,2,4-triazol-3-yl)amino]-4-pyridyl]pyrido[3,4-d]pyrimidin-4-amine]"
